Reference: patent US20250326814A1, “MODIFIED OXYNTOMODULIN AND METHODS OF USE THEREOF” (OPKO BIOLOGICS LTD., priority 2024, published 2025)
“Also recorded” adds a separate entry of the source. Non-standard residues stand in square brackets, D forms with d. Residues, ends and D or L forms follow the SMILES beside them. *: point of attachment. X1 = O=C(O)CCCCCCCCCCCCCCCCCCC(=O)N[C@@H](CCC(=O)NCCOCCOCC(=O)NCCOCCOCC(=O)N[C@@H](CCCCNC(=O)C*)C(=O)NCC(=O)O)C(=O)O; Aib = CC(C)(N)C(=O)O

Columns and labels:
[1] = molecular target: T1, glucagon-like peptide-1 (GLP1) receptor (Homo sapiens, UniProt P43220); assay: GLP-1 activity EC50 of OXM analogs and GLP-1 therapeutics (Example 4, Table 9); assay type: cell-based; settings: GLP-1 activity; Table 9; read-out: EC50
T1 construct: expressed in transfected cells; host or cells: CHO-K1
Text: The potencies of the modified OXM analogs newly disclosed in the present application, the OXM Analog alone, and the PEGylated OXM analog were examined and compared by measuring the EC50 of both receptors, glucagon-like peptide-1 (GLP1) and glucagon (GCGR).

GLP1 = GLP1 (Homo sapiens, UniProt P43220); assay: GLP-1 activity in vitro of PEGylated and acylated OXM peptide analogs (Table 12); assay type: cell-based
Protocol: (§4) The potential benefits of novel acylated OXM products relative to the PEGylated OXM peptide were evaluated for GLP-1 and Glucagon activity in vitro, molecular weight, dosing, and efficacy in a DIO Mouse model.
(§5) The potency of the acylated OXM peptides was compared with the native OXM peptide alone and Pegylated OXM peptide to evaluate the impact of acylation on GLP-1 and Glucagon activities.

GCGR = GCGR (Homo sapiens, UniProt P47871); assay: Glucagon activity in vitro of PEGylated and acylated OXM peptide analogs (Table 12); assay type: cell-based
Protocol: as §4, §5

DIO mice [2] = assay: Body weight and food intake in DIO mice, 4 weeks daily treatment; assay type: in vivo
Protocol: (§1) The animals were individually weighed and analyzed for lipid and cholesterol levels prior to treatment and following completion of the study. The levels of fasting glucose and insulin levels were analyzed, and oral glucose tolerance test was performed and compared between groups The levels of plasma triglycerides and cholesterol were evaluated at the end of study and compared to base levels prior to treatment. Levels of total cholesterol, triglycerides and glycogen were also examined at the end of study. Histology of liver was used to analyze for lipid droplets in the liver. All tests were conducted using routine methods known in the art.
The mice used in the studies were the gubra diet-induced obese (DIO) mouse model. This mouse model is fed a high fat diet that results in rapid weight gain. The DIO mice were based on male C57BI/6J mice and ready for experiment after 18 weeks on a 60% high fat diet.
To ensure accurate monitoring of weight changes over the course of the study, the animals were weighed daily with precision, prior to dosing at 7:00 AM. Body weight data was recorded in two formats: (1) Absolute measurements: The direct weight of the animal each day, and (2) Relative measurements: The weight expressed as a percentage relative to the body weight recorded on Day 1.
(§2) Sixty C57BL/6JRj male mice were fed a high fat diet (60% HFD, D12492—Ssniff) for 20 weeks before treatment start. […] Body weight and food intake (24 h) were measured daily. In week 3, an OGTT study was performed. Baseline and preterminal fasting blood glucose and plasma insulin were assessed. Preterminal plasma TC and TG were assessed. Terminal endpoints included liver and heart weight, liver TC, TG, […] and lipid content (HE staining).

DIO mice [3] = assay: Body composition (fat and lean tissue mass) in DIO mice; assay type: in vivo
Protocol: The body composition of mice was assessed by an EchoMRI 3 in 1 Body composition analyzer (EchoMRI, US). Non-anaesthetized animals were placed in a plastic tube inside the MRI scanner for approximately 80 seconds. The body composition was reported as fat mass and fat free mass (lean mass).
as §2

DIO mice [4] = assay: Liver cholesterol, triglyceride and glycogen in DIO mice; assay type: in vivo
Protocol: (§3) After termination, the liver was collected and weighed. Specific liver samples and biopsies were dissected and processed as specified in table “Termination samples” in the protocol and further described below.
The Liver TG TC piece (25±5 mg) was dissected from the right medial lobe, with no edges, on the opposite side of the sponsor piece. The samples were weighed individually, collected in tubes and frozen in liquid nitrogen. The samples were stored at −70° C.
Liver Triglycerides (TG) and Total cholesterol (TC): The liver content of triglyceride and total cholesterol was extracted from the liver samples into 5% NP-40, in a homogenization process followed by a heating step, where the samples were heated twice to 90° C. The samples were then centrifuged, and the supernatant was collected. The TG and TC levels were then determined by measurement on the cobas c 501 autoanalyzer with the relevant commercial kits from Roche Diagnostics.
as §2

DIO mice [5] = assay: Liver H&E staining for lipid droplets / liver lipid in DIO mice; assay type: in vivo
Protocol: In summary, glass slides with paraffin embedded sections were deparaffinated in xylene and rehydrated in series of graded ethanol.
Slides treated with histochemical and immunohistochemical stains were scanned using a 20× objective in a ScanScope AT slide scanner (Aperio).
Hematoxylin & Eosin (H&E) staining: Sections of FFPE tissue were incubated in Mayer's Hematoxylin (Dako), washed in tap water, stained in Eosin Y solution (Sigma-Aldrich), dehydrated in graded ethanol and cover slipped.
as §2

DIO mice [6] = assay: Plasma cholesterol and triglyceride in DIO mice; assay type: in vivo
Protocol: For termination blood samples, during anesthesia with isoflurane, the abdominal cavity was opened, and cardiac blood was drawn with a syringe into a Microvette/Vacuette of appropriate dimensions with anticoagulant and mixed by inversion 5 times. Blood was placed at 4° C. until centrifuged at 3000 g for 10 minutes. The plasma supernatants were transferred to new tubes and immediately frozen on dry ice. The samples were stored at −70° C.
Alanine transaminase (ALT), Aspartate transaminase (AST), Triglycerides (TG) and Total Cholesterol (TC): Blood samples were collected in heparinized tubes and plasma was separated and stored at −70° C. until analysis. Samples were measured using commercial kits (Roche Diagnostics), on the cobas c 501 autoanalyzer.
as §2

DIO mice [7] = assay: Fasting blood glucose and plasma insulin in DIO mice; assay type: in vivo
Protocol: For in vivo blood samples, tail-vein, tongue or cheek blood was collected in a Microvette tube of appropriate dimensions with anticoagulant and mixed by inversion 5 times. Blood was placed at 4° C. until centrifuged at 3000 g for 10 minutes. The plasma supernatants were transferred to new tubes and immediately frozen on dry ice. The samples were stored at −70° C.
Insulin: Blood samples were collected in heparinized tubes and plasma was separated and stored at −70° C. until analysis. Insulin was measured using the commercial MSD platform (Meso Scale Diagnostics).
as §2

DIO mice [8] = assay: Oral glucose tolerance test in DIO mice; assay type: in vivo
Protocol: Animals were housed in a clean cage and fasted for 4 hours prior to oral or intraperitoneal glucose administration. At timepoint 0, mice receive an oral or intraperitoneal dose of 10 ml/kg of 200 mg/ml standard glucose solution (Fresenius Kabi, DK). At timepoint 0, mice received an oral or intraperitoneal dose of 4 ml/kg of standard 500 mg/ml glucose solution (Fresenius Kabi, DK). Blood samples (10 μl) were collected at various timepoints defined in the study protocol into heparinized glass capillary tubes and immediately suspended in glucose/lactate system solution buffer (EKF-diagnostics, Germany). Blood glucose (BG) was measured using a BIOSEN c-Line glucose meter (EKF-diagnostics, Germany) according to the manufacturer's instructions. After the last blood sample and/or drug dose, the animals were returned to the normal feeding schedule.
as §2

DIO mice [9] = assay: Organ weights at termination in DIO mice; assay type: in vivo; settings: mid and high (5 and 15 nmol/kg)
Protocol: as §3, §2

DIO mice [10] = assay: Weight loss in DIO mice with OPK-88604 and OPK-88006, 30 nmoles/kg; assay type: in vivo; settings: vs placebo, listed as OPK-88604
Protocol: as §1
DIO mice with weights of around 55 grams were divided into three groups and treated with placebo, 30 nmoles/kg of OPK-88604, or 30 nmoles/kg of OPK-88006 for 4 weeks. The animals were weighed daily for the period of treatment.

[11] = Solubility data of the binder complex; assay type: physicochemical
Text: The structure and characteristics of the binder complex are detailed in Table 4 below.

[12] = 15 nmol/kg daily, 28 days, OPK-88604 vs semaglutide
[13] = 28 day treatment, vs semaglutide
[14] = mid and high (5 and 15 nmol/kg)
[15] = 28 day treatment, vs semaglutide, listed as OPK-88604

GCGR, sequence (P47871 26-477): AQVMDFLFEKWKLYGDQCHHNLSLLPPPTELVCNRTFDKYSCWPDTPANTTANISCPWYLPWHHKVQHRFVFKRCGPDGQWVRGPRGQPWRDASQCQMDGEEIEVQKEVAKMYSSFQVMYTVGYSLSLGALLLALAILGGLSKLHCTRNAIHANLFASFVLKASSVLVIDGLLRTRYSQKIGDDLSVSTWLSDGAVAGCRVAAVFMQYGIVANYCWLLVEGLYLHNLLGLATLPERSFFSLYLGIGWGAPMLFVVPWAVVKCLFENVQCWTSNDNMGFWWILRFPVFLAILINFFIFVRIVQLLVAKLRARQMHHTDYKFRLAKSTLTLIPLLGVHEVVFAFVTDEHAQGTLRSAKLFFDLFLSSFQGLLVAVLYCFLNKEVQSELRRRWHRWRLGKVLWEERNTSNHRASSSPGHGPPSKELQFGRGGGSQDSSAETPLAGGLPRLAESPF
T1 sequence (P43220 24-463): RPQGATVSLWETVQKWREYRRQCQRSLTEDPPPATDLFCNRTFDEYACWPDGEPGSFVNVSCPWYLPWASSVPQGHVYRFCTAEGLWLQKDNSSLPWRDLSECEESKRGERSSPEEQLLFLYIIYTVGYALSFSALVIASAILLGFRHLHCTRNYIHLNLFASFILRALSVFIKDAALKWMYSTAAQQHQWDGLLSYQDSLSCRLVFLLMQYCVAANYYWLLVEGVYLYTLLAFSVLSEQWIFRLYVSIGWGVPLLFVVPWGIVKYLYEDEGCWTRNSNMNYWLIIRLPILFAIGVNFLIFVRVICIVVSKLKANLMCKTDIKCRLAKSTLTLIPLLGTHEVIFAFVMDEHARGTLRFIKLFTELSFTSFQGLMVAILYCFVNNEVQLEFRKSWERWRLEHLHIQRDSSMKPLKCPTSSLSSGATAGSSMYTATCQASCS
GLP1, sequence (P43220 24-463): as above

CC[C@H](C)[C@H](NC(=O)[C@H](CC(N)=O)NC(=O)[C@H](CC(N)=O)NC(=O)[C@H](CCCNC(=N)N)NC(=O)[C@H](CC(N)=O)NC(=O)[C@H](CCCNC(=N)N)NC(=O)CNC(=O)C(C)(C)NC(=O)[C@H](CC(N)=O)NC(=O)[C@H](CC(C)C)NC(=O)[C@H](CC(C)C)NC(=O)[C@H](Cc1c[nH]c2ccccc12)NC(=O)[C@H](CCC(N)=O)NC(=O)[C@@H](NC(=O)[C@H](Cc1ccccc1)NC(=O)[C@H](CCC(=O)O)NC(=O)[C@H](CCC(N)=O)NC(=O)[C@H](C)NC(=O)[C@H](CCCCN)NC(=O)[C@H](CCCCN)NC(=O)[C@H](CO)NC(=O)[C@H](CC(=O)O)NC(=O)[C@H](CC(C)C)NC(=O)[C@H](Cc1ccc(O)cc1)NC(=O)[C@H](CCCCN)NC(=O)[C@H](CO)NC(=O)[C@H](Cc1ccc(O)cc1)NC(=O)[C@H](CC(=O)O)NC(=O)[C@H](CO)NC(=O)[C@@H](NC(=O)[C@H](Cc1ccccc1)NC(=O)[C@@H](NC(=O)CNC(=O)[C@H](CCC(N)=O)NC(=O)C(C)(C)NC(=O)[C@@H](N)Cc1c[nH]cn1)[C@@H](C)O)[C@@H](C)O)C(C)C)C(=O)N[C@@H](C)C(=O)N[C@@H](CSCC(=O)NCCCC[C@H](NC(=O)COCCOCCNC(=O)COCCOCCNC(=O)CC[C@H](NC(=O)CCCCCCCCCCCCCCCCCCC(=O)O)C(=O)O)C(=O)NCC(=O)O)C(N)=O [Variant 1] (H-H[Aib]QGTFTSDYSKYLDSKKAQEFVQWLLN[Aib]GRNRNNIAC(X1)-NH2)
EC50 [1]: 0.09 nM
EC50 (GLP1): 0.0159 nM
EC50 (GCGR): 0.164 nM
GCGR/GLP-1R (GCGR; ratio of EC50 activity): 10.3
food consumption / cumulative food intake (FIG. 17B, 18B) (DIO mice [2]; [12]): Reduced food consumption significantly less than treatment with semaglutide
weight loss from baseline (FIG. 17A, 18A) (DIO mice [2]; 15 nmol/kg daily, 28 days, OPK-88604 vs semaglutide vs placebo): similar
relative body weight (day 28), P compared to Vehicle (FIG. 16B) (DIO mice [2]; Mid, 5 nmol/kg QD SC): < 0.05
absolute and relative body weight and fat mass compared to the vehicle group (DIO mice [2]; high (15 nmol/kg), four weeks): reduced both absolute and relative body weight and fat mass
relative body weight compared to the vehicle group (DIO mice [2]; mid (5 nmol/kg), four weeks): reduced relative body weight
relative fat tissue mass / relative lean tissue mass at week 4, P compared to Vehicle (FIG. 22A, 22B) (DIO mice [3]; 15 nmol/kg QD SC): < 0.01
relative lean body mass and fat mass change from baseline on day 28 (FIG. 24A, 24B) (DIO mice [3]; [12]): statistically similar
total liver cholesterol, P compared to Vehicle (FIG. 25B) (DIO mice [4]; 15 nmol/kg QD SC): < 0.05
total liver cholesterol, triglycerides and glycogen, change from baseline on day 28 (FIG. 28A-C) (DIO mice [4]; [13]): significantly more effective in reducing total liver cholesterol, triglycerides, and glycogen
total liver TC (DIO mice [4]; high (15 nmol/kg)): reduced
liver TG (total and relative) (DIO mice [4]; [14]): reduced
relative liver lipid / total liver lipid, P compared to Vehicle (FIG. 31A, 31B) (DIO mice [5]; 15 nmol/kg QD SC): < 0.001
lipid droplets in liver, H&E staining (FIG. 30A-C) (DIO mice [5]; 28 day treatment, vs placebo and semaglutide, listed as OPK-88604): reduced the amount of lipid droplets in liver compared to placebo and animals treated with semaglutide; also recorded: Significantly reduced the amount of lipid droplets in liver compared to Semaglutide
liver lipid content (total and relative) (DIO mice [5]; high (15 nmol/kg)): reduced
total plasma cholesterol and triglycerides on day 28 (FIG. 33A, 33B) (DIO mice [6]; [13]): significantly more effective in reducing total plasma cholesterol and triglycerides compared to semaglutide
plasma TC levels at termination (DIO mice [6]; [14]): reduced
fasting glucose change from baseline on day 28 (FIG. 35A) (DIO mice [7]; [15]): significant decrease in fasting glucose levels compared to semaglutide treatment; also recorded: significantly more effective in lowering fasting glucose levels
fasting insulin change from baseline on day 28 (FIG. 35B) (DIO mice [7]; [15]): marked increase in insulin levels from baseline compared to semaglutide treatment; also recorded: increased insulin levels compared to Semaglutide
blood glucose levels at study week 4 (DIO mice [7]; all doses (2, 5, 15 nmol/kg)): reduced blood glucose levels
plasma insulin levels during the glucose tolerance test and preterminal (DIO mice [7]; high (15 nmol/kg)): decreased
blood glucose in response to an oral glucose bolus compared to vehicle controls (DIO mice [8]; all OPK-88604 groups (2, 5, 15 nmol/kg)): reduced blood glucose compared to vehicle controls
glucose AUC in OGTT (FIG. 38B) (DIO mice [8]; treated for 3 weeks, vs semaglutide): statistically lower
glucose levels in Oral Glucose Tolerance test (FIG. 38A) (DIO mice [8]; treated for 3 weeks, vs semaglutide, listed as OPK-88604): more effective in reducing glucose levels in an Oral Glucose Tolerance test compared to Semaglutide
heart weight (DIO mice [9]): reduced
weight loss over 4 weeks (FIG. 41A, 41B) (DIO mice [10]): significant weight loss over 4 weeks compared to placebo

Eicosanedioic-[…]Glu-(AEEA)2-Lys(Ac-Br)-Gly-OH [Binder Complex]
Solubility data [11]: Water-based buffer at pHs 6.5-7.5
